Test results taken from patent US6750244B2, “Compounds active at a novel site on receptor-operated calcium channels useful for treatment of neurological disorders and diseases” (NPS Pharmaceuticals, Inc., priority 1993, dated 2004).
Read-outs that look alike come from different tables or passages of the source.

Legend:
[1] = system: focal cerebral ischemia; assay: Middle cerebral artery occlusion, permanent, surgical ligation; type: in vivo, rat; details: maximally effective dose 10 mg/kg; 24 hours
Procedure: In the first study using this stroke model, one cerebral artery was permanently occluded by surgical ligation. The test compounds were administered 30 minutes after the occlusion by a single intraperitoneal (i.p.) injection. During the course of these experiments, the core body temperature of the animals was maintained at 37° C. to prevent any hypothermic reaction. Brains were assessed histologically for neuronal cell loss 24 hours later. Infarct volumes were calculated using the area of histological pallor from 10 slides and integrating the distance between each successive section.

[2] = system: formalin-induced flinching; type: in vivo, Sprague-Dawley rats
[3] = system: induction of LTP; design: species or system rat
[4] = system: audiogenic seizures; assay: animal or person; type: in vivo, DBA/2 mice; details: for EC50 in the audiogenic seizure model: mouse, in vivo
Procedure: (§1) The first two models used DBA/2 mice which are prone to audiogenic seizures. […] The test substances were administered 15-30 min before the convulsant stimulus.

[5] = system: learning; assay: T maze learning test; details: i.p. 15 min before testing
From the text: In this test, rats were trained to alternate turning in a T maze for a food reward.

[6] = system: thermal nociception; type: in vivo, rats
Procedure: In this standard assay, the thermal nociceptive stimulus was 52° C. warm water with the latency to tail flick or withdrawal taken as the endpoint.

[7] = system: NMDA receptor; assay: Inhibition of NMDA/glycine-induced increases in intracellular calcium in cultured rat cerebellar granule cells (RCGC); type: cell-based
[8] = system: thermal nociception; type: in vivo, rats; remark: listed apart in the source
Procedure: In these experiments, a 52° C. hot plate was used as the nociceptive stimulus.

[9] = system: motor performance; assay: Acute motor impairment (rotorod) in mice; details: Frings mice, i.c.v. injection
Procedure: In this assay, Frings and CF1 mice were injected with test compound and placed on a knurled rod which rotated at a speed of 6 rpm. The ability of the mice to maintain equilibrium for long periods of time was determined; those mice that were unable to maintain equilibrium on the rotorod for 1 min in each of 3 trials were considered impaired.

[10] = system: learning; assay: Morris water maze task; type: in vivo, rats; details: 10 mg/kg i.p. daily for 5 days
Procedure: In a second series of experiments, the effect of Compound 4 on learning in the Morris water maze task was evaluated. In this test, a hidden platform was placed in a fixed location in a circular steel tank, and submerged 2 cm below the surface of the water. Each rat was given 3 trials per day with a 10 min intertrial interval for 5 days. A trial was initiated by placing the rat in the water, nose facing the wall of the tank, at one of three predetermined starting locations. The order of the start location was varied daily. Learning was measured as a decrease in time required to swim to the platform. […] The animals remained on the platform for 10 sec before being removed from the tank. Ten min after the last training trial on day 5, the animals received a probe test. The platform was removed for this 1 trial task and the animals were allowed to swim for 60 sec to assess the spatial bias for the platform location. Two measures were recorded from this task: latency to first crossing the area where the platform had been, and total number of crossings. A total of 5 injections of Compound 4 were given to each rat. In the first series of experiments, Compound 4 was administered at 10 mg/kg i.p. daily for 5 days. […] In a subsequent study, six animals received 1 mg/kg i.p. for the first 4 days of training, while two animals received 5 mg/kg i.p. during this period. […]

[11] = target: NMDA receptor-ionophore complex (site labeled by [3H]MK-801); assay: Inhibition of [3H]MK-801 binding in rat cortical/hippocampal washed membrane preparations; details: read-out: IC50 (μM) vs. [3H]MK-801; rat cortical/hippocampal washed membranes
[12] = system: focal ischemia; assay: Photothrombotic (Rose Bengal) model of focal cerebral ischemia; type: in vivo, rat; details: 10 mg/kg i.p. 30 min after the ischemic event
From the text: In a third model of focal cerebral ischemia in the rat, an ischemic infarct was produced by a photothrombotic method using the dye Rose Bengal.

[13] = system: sound-induced seizures; assay: Sound-induced seizures in Frings mice (reflex epilepsy); type: in vivo; details: intracerebroventricular (i.c.v.) injection
[14] = system: mean arterial blood pressure; details: for Drop in Mean Arterial Blood Pressure / Drop in Mean Arterial Blood Pressure: duration: 1.5 μmoles/kg i.v., rats
[15] = system: permanent focal ischemia; assay: Permanent focal cerebral ischemia (middle cerebral artery occlusion, suture); type: in vivo, rat; details: 10 mg/kg i.p. immediately after onset of ischemic event; 24 hr
Procedure: In the second study of focal cerebral ischemia in the rat, the middle cerebral artery was permanently occluded by passing a small piece of suture thread through the carotid artery to the region of the middle cerebral artery. Core body temperature was maintained at 37° C. Compound 4, 10 mg/kg i.p. administered immediately after the onset of the ischemic event, produced a statistically significant reduction in the volume of the brain infarct (20%) recorded 24 hr later.

[16] = system: acetic acid-induced writhing; type: in vivo, mice; details: i.p.
[17] = system: NMDA receptor; details: rat hippocampal slices
Procedure: Glutamate-mediated transmission at synapses of Schaffer collateral fibers and CA1 pyramidal cells was measured in slices of rat brain containing the hippocampus. This assay measures electrophysiologically the postsynaptic depolarization caused by the presynaptic release of glutamate, and can readily distinguish synaptic transmission mediated by NMDA or AMPA receptors.

[18] = system: forebrain ischemia (neuronal cell death); type: in vivo, gerbil
Procedure: Blood flow to the brain was interrupted for 7 minutes by clamping the carotid arteries. The test compounds were administered as a 'single dose given intraperitoneally (i.p.) 30 minutes after reinstating blood flow. During the course of these experiments, the core body temperature of the animals was maintained at 37° C. to prevent any hypothermic reaction. […]

[19] = system: temporary focal ischemia; assay: Temporary focal cerebral ischemia (middle cerebral artery occlusion, suture withdrawn after 2 hr); type: in vivo, rat; details: 10 mg/kg i.p. immediately after onset of ischemic event; 72 hr
Procedure: In a fourth model of focal cerebral ischemia in the rat, the middle cerebral artery was temporarily occluded by passing a small piece of suture thread through the carotid artery to the region of the middle cerebral artery. The suture thread was withdrawn after an ischemic period of 2 hr. Core body temperature was maintained at 37° C. […]

[20] = system: motor performance; details: 20 mg/kg s.c.
[21] = system: NMDA-induced seizures; assay: animal or person; details: Mus musculus, sc, read-out: ED50 for NMDA stimulus
Procedure: as §1

[22] = system: T1, L-type calcium channel; assay: Inhibition of KCl depolarization-induced increases in intracellular calcium in cultured rat cerebellar granule cells; type: cell-based; details: read-out: L-type calcium channel: estimated IC50, KCl depolarization-induced increases in intracellular calcium; cultured rat cerebellar granule cells
T1 construct: L-type calcium channel: estimated IC50, KCl depolarization-induced increases in intracellular calcium; other: cultured
From the text: (§2) The ability of arylalkylamines to inhibit dihydropyridine-sensitive Ca^2+ channels was examined in cerebellar granule cells and a rat aortic smooth muscle cell line, A7r5 cells.

[23] = system: L-type calcium channel; assay: as above; type: cell-based; details: cerebellar granule cells
From the text: as §2

[24] = system: mouse cortical neurons; assay: cells; details: Cortical neurone, read-out: IC50, prevention of NMDA-induced cell death
[25] = read-out: IC50 against NMDA receptor-mediated increases in [Ca2+]i in cerebellar granule cells

SMILES: C[C@]12N[C@H](Cc3ccccc31)c1ccccc12 [MK-801, reference compound]
- protection against neuronal cell loss [1]: approximately 15%
- induction of LTP (p<0.05) ([3]; slices superfused 30-60 min): significantly blocked
- EC50 in the audiogenic seizure model [4]: 0.02 mg/kg
- ability to make the correct choices in the T maze [5]: progressively decreased the number of correct choices
- analgesic effect, tail flick (52° C. warm water) ([6]; 3-30 nmol): ineffective
- antinociceptive effect, hot plate ([8]; 3-30 nmol): ineffective

SMILES: NCCCNCCCCNCCCNCCCNCCCNC(=O)Cc1c[nH]c2ccc(F)cc12 [Compound 4]
- TD50, acute motor impairment [9]: 8 to 16 µg
- late-phase flinching, administered after the formalin ([2]; 0.3-10 nmol i.th., 10 min after formalin): significance achieved at the 3 and 10 nmol doses
- flinching behaviors, pretreatment to formalin ([2]; 0.3-10 nmol i.th., 10 min prior to formalin): effectively inhibited both early- and late-phase flinching behaviors
- learning in the Morris water maze [10]: impaired learning
- LTP Assay (block of the induction of LTP) ([3]; at 100 μM): no block
- IC50 [11]: 89 µM
- reduction in the volume of the infarct [12]: 20%
- EC50 in the audiogenic seizure model [4]: 0.08 mg/kg
- IC50, prevention of sound-induced seizures [13]: 4.77 µg
- Drop in Mean Arterial Blood Pressure [14]: 40 mm Hg at
- Drop in Mean Arterial Blood Pressure: duration [14]: i.v., 120 min
- drop in mean arterial pressure ([14]; 10 mg/kg i.p.): 40 mm Hg
- persistence of the drop in mean arterial pressure ([14]; 10 mg/kg i.p.): 90 to 120 min
- reduction in the volume of the brain infarct [15]: 20%
- IC50, inhibition of acetic acid-induced writhing [16]: 1 mg/kg
- Suppression of NMDA Receptor-Mediated Synaptic Transmission (concentration which suppresses) [17]: 10 to 100 µM
- analgesic effect, tail flick (52° C. warm water) ([6]; 0.3-3 nmol i.th.): dose- and time-dependent analgesic effect
- reduction in neuronal death / protection in region CA1 of the hippocampus ([18]; 10 mg/kg, 7 days post-ischemia): 90%
- IC50 ([7]; NMDA/glycine-induced increases in intracellular calcium, cultured rat cerebellar granule cells, read-out: IC50 (μM) vs. NMDA): 0.184 µM
- antinociceptive effect, hot plate ([8]; 0.3-3 nmol i.th.): dose- and time-dependent antinociceptive effects
- reduction in the volume of the brain infarct [19]: 37%

SMILES: NCCCNCCCCNCCCNCCCNCCCNC(=O)Cc1c[nH]c2ccccc12 [Compound 2]
- motor performance in the inverted grid assay [20]: without effect
- ED50 ([4]; Mus musculus, sc, read-out: ED50 for audiogenic stimulus): 0.13 mg/kg
- ED50 [21]: 0.083 mg/kg
- Drop in Mean Arterial Blood Pressure [14]: 40 mm Hg at
- Drop in Mean Arterial Blood Pressure: duration [14]: i.v., 120 min
- Suppression of NMDA Receptor-Mediated Synaptic Transmission (concentration which suppresses) [17]: 10 to 30 µM
- IC50 [22]: 24000 nM
- concentrations inhibiting depolarization-induced increases in [Ca2+]i relative to those blocking responses to NMDA [23]: 100 fold
- protection against neuronal cell death (CA1 of hippocampus, striatum and neocortex) ([18]; 20 mg/kg i.p. 30 minutes after reinstating blood flow, 4 days): significantly (p<0.05) protected against neuronal cell death
- protection of the striatum ([18]; doses as low as 1 mg/kg): > 98%
- IC50 ([7]; read-out: IC50 (μM) vs. NMDA, NMDA/glycine-induced increases in intracellular calcium, cultured rat cerebellar granule cells): 0.192 µM
- IC50 [7, 25]: 0.161 µM
- IC50 [24]: 30000 nM
